# Measured values: patent US20180116975A1, “COMPOSITIONS AND COMBINATIONS FOR THE TREATMENT OF ANGIOGENESIS DISEASES AND DISORDERS” (BIOMAS LTD., priority 2015, published 2018)
# System: patients with AMD (PED, subretinal fluid)
# Test: Clinical study (compassionate treatment): oral AS101 in conjunction with intra vitreal anti VEGF injections
# Assay type: in vivo, human
# From the text: Patients were orally administered with AS101/Formula I in conjunction with intraocular injections of intra vitreal anti VEGF. […] A special compassionate approval has been given by the local committee of ethics in Meir medical center, Kfar Saba, and the Ministry of Health in Israel to treat these two patients with orally taken AS101.
# Patient underwent an additional intra-vitreal Lucentis injection and from this point examination continued every month with treatment in PRN mode. Until Jul. 26, 2012 the patient underwent 9 intra-vitreal Lucentis injections. On January 2013 treatment was switched to Aflibercept (Eylea) and the patient received 3 montly injection and an additional injection on Jun. 18, 2013.
# The patient received an intravitreal triancinolon acetonid injection followed by the 3rd lucentis one week later. […] The patient received 2 additional Lucentis injections and on Nov. 27, 2012 treatment was switched to Eylea when it became available in Israel. The patient received 8 monthly Eylea injections, the last one on Jun. 18, 2013.
# On Jul. 7, 2013, the patient started to receive 12 drops of AS101 every day orally. On Aug.
# Except for one occasion of a 5 month interval between 2 injections, the patient received an injection every month. […] Four days after the last Lucentis injection, on 13 Aug. 2013 the patient started to take 12 drops of AS101 orally.
molecule,measurement,setting,value
Cl[TeH]1(Cl)(Cl)OCCO1 [AS101],OCT finding after discontinuation of AS101,"Case 1, 3 weeks after AS101 was discontinued",development of new subretinal fluid in both eyes
same,time without need for additional injections,"Case 1, left eye, until discontinuation of AS101",8 months
same,subretinal fluid at the base of the PED (OCT),"Case 1, left eye, 12 drops AS101 daily orally, one month after Lucentis with triamcinilon acetonide injections",decrease of the amount of the subretinal fluid
same,subretinal fluid at the slope of the PED (OCT),"Case 1, left eye, next 3 monthly OCT tests after cataract surgery, on AS101",absorbed for the first time since it appeared
same,time without need for intravitreal injections,"Case 1, right eye, until discontinuation of AS101",10 months
same,adverse events,"Case 2, 12 drops AS101 orally",No adverse events were reported
same,last visual acuity,"Case 2, left eye, Nov. 11, 2014, on AS101 (20/200 at diagnosis)",20/50
same,last visual acuity,"Case 2, right eye, Nov. 11, 2014, on AS101",20/30
same,Angiogenesis inhibitor injections during treatment according to the invention,"Patient #1, LE (left eye), in 9 months, oral AS101",LE: 1 injection in 9
same,maximal time interval between injections,"Patient #2, during AS 101 treatment with Lucentis",injections: 14 months
same,Angiogenesis inhibitor injections during treatment according to the invention,"Patient #2, in 27 months, 12 drops AS101 orally, Lucentis PRN",4 injections
same,Angiogenesis inhibitor injections during treatment according to the invention,"Patient #2, in 27 months, 12 drops AS101 orally, Lucentis PRN, listed as AS 101",4 injections in 27
same,progression of drusens/dry AMD to Wet AMD,observation during the compassionate treatment,did not developed to Wet AMD
same,time intervals between Ranibizumab injections,"patient suffering from AMD, otherwise injected every month, with AS-101",9 months
"Aflibercept [Eylea, reference compound]",amount of the subretinal fluid over the peak of the PED and at the slope,"Case 1, left eye, 8 monthly injections, before AS101",did not change
"Ranibizumab (antibody, chains of the INN, looked up, V domains shown) VH: EVQLVESGGGLVQPGGSLRLSCAASGYDFTHYGMNWVRQAPGKGLEWVGWINTYTGEPTYAADFKRRFTFSLDTSKSTAYLQMNSLRAEDTAVYYCAKYPYYYGTSHWYFDVWGQGTLVTVSS VL: DIQLTQSPSSLSASVGDRVTITCSASQDISNYLNWYQQKPGKAPKVLIYFTSSLHSGVPSRFSGSGSGTDFTLTISSLQPEDFATYYCQQYSTVPWTFGQGTKVEIK",subretinal fluid (OCT),"Case 1, right eye, 3 intra-vitreal injections in one month intervals, before AS101",resolution of the subretinal fluid
